In publication PMC10441178, “Antibiofilm assay for antimicrobial peptides combating the sulfate‐reducing bacteria Desulfovibrio vulgaris” (MicrobiologyOpen, 2023):
Ends that are not written are not given here. Peptide text beside a SMILES is read from it.

How the values were obtained:
[1] = system: Desulfovibrio vulgaris biofilm; assay type: cell-based, Desulfovibrio vulgaris DSM 644; settings: 6 h preincubation, then peptide (1 mg/mL to 1.95 µg/mL, twofold dilution), further 66 h, 37°C anaerobic; polished steel rivets; consistent for OD600 and OD570 (crystal violet); n = 3 per concentration
Experimental: D. vulgaris DSM 644 was cultivated in Postgate medium (DSMZ medium 63) with a modification of 0.004 g/L FeSO4 × 7H2O and 0.3 g/L trisodium citrate. The medium was flushed with nitrogen gas. Incubation was performed at 37°C without shaking. Steel […]660 4 × 15 mm (Würth-Gruppe) served as the growth surface. These were applied in the following pretreated stages: (1) mechanically untreated; (2) roughened: two turns with silicon carbide sandpaper with a grit size of 180; (3) polished: two turns with silicon carbide sandpaper with a sequential grit size of 320, 400, 600, 800, and 1200. The steel […] cleaned in acetone, 2-propanol, and ethanol (Carl Roth GmbH & Co. KG) for 5 min each using an ultrasonic bath, frequency 47 KHz (Branson Ultrasonic Corporation). […] Routine measurements of OD600 and OD570 were performed using the InfiniteM[…] plate reader (Tecan Group AG). For measurements in the anaerobic chamber, OD600 was measured with a Stratus microplate reader (Cerillo Inc.). […] Figure 2 Minimum biofilm inhibitory concentration (MBIC) assay for Desulfovibrio vulgaris: OD600 and OD570 of the challenge plate (72 h incubation) for different concentrations of four antimicrobial peptides: […]-33, Bactenecin, […]1 (black striped), and uninhibited sample (gray); mean and standard deviation were determined by propagation of error; asterisks indicate significant reduction (p = 0.005).

[2] = system: Desulfovibrio vulgaris biofilm; assay type: cell-based, Desulfovibrio vulgaris DSM 644
Experimental: D. vulgaris DSM 644 was cultivated in Postgate medium (DSMZ medium 63) with a modification of 0.004 g/L FeSO4 × 7H2O and 0.3 g/L trisodium citrate. The medium was flushed with nitrogen gas. Incubation was performed at 37°C without shaking. The preparation of the MBEC assay was similar to the MBIC. A measure of 120 μL of bacterial suspension was added per well as growth check (n = 8) or as AMP test (n = 6 per AMP concentration) and 120 μL of medium as sterile control (n = 8). The microtiter plate was incubated for 72 h. Afterward, the […] transferred to the challenge plate consisting of 120 μL of AMP solution (1 mg/mL to 1.95 μg/mL), 120 μL of medium for growth check (n = 8), 120 μL of medium (n = 4) or 120 μL of water (n = 2) or 120 μL of AMP with a concentration of 1 mg/mL (n = 2) for sterile control (in Figure A3, a pipetting scheme is shown). Incubation was performed for 24 h. The […] washed with 0.9% NaCl and half of them were stained with crystal violet (see MBIC). The other half was transferred to the recovery plate containing 120 μL of medium per well and placed in the ultrasonic bath for 30 min. The […] removed and the microtiter plate was incubated for 48 h. After the incubation period of 48 h, OD600 was measured. An overview of the individual steps of the MBIC/MBEC assay is shown in Figure 1.  Figure 5 Minimum biofilm eradication concentration (MBEC) assay for Desulfovibrio vulgaris: OD600 of the recovery plate (48 h incubation) and OD570 of the challenge plate (72 h incubation) for different concentrations of four antimicrobial peptides: […]-33, Bactenecin, […]1 (black striped), and uninhibited sample (gray); mean and standard deviation were determined by error propagation; asterisk indicates significant reduction (p = 0.005).

[3] = in vitro; assay type: in vitro ADME; settings: cells or culture medium
Experimental: Figure 4 Long-term stability for the peptide […]1 in Postgate C medium (black) and in the supernatant of a 7-day-old culture of Desulfovibrio vulgaris (gray), analyzed with reversed-phase high-performance liquid chromatography; 100% peptide content corresponds with the peptide content at 0 h. Values are shown as means with standard deviation, n = 3.

Molecule | MBIC95% [1] | Lowest peptide concentration with complete removal of the biofilm (total biofilm mass, OD570) ([2]; 72 h biofilm on steel rivets, challenge with peptide, crystal violet staining, OD570) | Effect on OD600 of recovery plate below the MBEC95% ([2]; peptide concentrations 250 and 125 µg/mL) | Removal of total biofilm mass (OD570) at lower concentrations ([2]; peptide concentrations 250 and 125 µg/mL, crystal violet, OD570) | remaining at 168 h [3] | remaining at 504 h [3]
CC[C@H](C)[C@H](NC(=O)[C@H](CCCNC(=N)N)NC(=O)[C@H](CS)NC(=O)[C@H](CC(C)C)NC(=O)[C@@H](N)CCCNC(=N)N)C(=O)N[C@H](C(=O)N[C@H](C(=O)N[C@H](C(=O)N[C@@H](CCCNC(=N)N)C(=O)N[C@H](C(=O)N[C@@H](CS)C(=O)N[C@@H](CCCNC(=N)N)C(=O)O)C(C)C)[C@@H](C)CC)C(C)C)C(C)C [Bactenecin] (H-RLCRIVVIRVCR-OH; N-terminus and C-terminus assumed) | no biofilm inhibitory effects | 500 µg/mL | partial effect | partial removal |  | 
FFGKVLKLIRKIF [DASamP1] |  |  |  |  | 70% | 56%
